Experimental data published in patent US12528761B2, “Thyromimetics” (Autobahn Therapeutics, Inc., priority 2020, dated 2026).

Target: T1, recombinant human FAAH (rhFAAH) (Homo sapiens, UniProt O00519)
T1 construct: purchased Cayman Chemical (Ann Arbor, MI, USA)
T1 sequence (O00519 1-579): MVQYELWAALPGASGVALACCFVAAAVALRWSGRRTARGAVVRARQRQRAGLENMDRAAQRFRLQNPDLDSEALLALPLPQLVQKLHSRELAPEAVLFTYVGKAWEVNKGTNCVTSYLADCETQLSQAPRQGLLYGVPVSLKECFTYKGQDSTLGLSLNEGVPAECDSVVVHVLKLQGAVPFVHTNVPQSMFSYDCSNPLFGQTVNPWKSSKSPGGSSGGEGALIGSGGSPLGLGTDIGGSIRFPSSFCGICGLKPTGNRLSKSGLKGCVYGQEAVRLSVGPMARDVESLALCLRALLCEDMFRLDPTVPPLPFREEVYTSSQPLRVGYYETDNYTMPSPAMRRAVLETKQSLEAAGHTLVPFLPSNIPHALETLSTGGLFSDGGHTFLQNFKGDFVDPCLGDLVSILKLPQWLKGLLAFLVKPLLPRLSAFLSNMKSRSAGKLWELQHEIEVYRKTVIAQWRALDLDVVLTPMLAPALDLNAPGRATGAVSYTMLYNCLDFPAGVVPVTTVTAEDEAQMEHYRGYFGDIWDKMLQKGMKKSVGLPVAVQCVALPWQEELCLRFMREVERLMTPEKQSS
Assay: FAAH substrate evaluation (formation of acid metabolite, LC-MS/MS)
Assay type: biochemical
Parameters: key: A: ke is equal to or less than 1.0; B: ke is greater than 1.0 and less than or equal to 2.5; C: ke is greater than 2.5; NC: no conversion
Conditions: 0.5 ng/μL rhFAAH, 1 μM test compound, pH 8.0, room temperature, 0-60 minutes
Description: Purified recombinant human FAAH (rhFAAH) was purchased from Cayman Chemical (Ann Arbor, MI, USA). The total volume for each incubation was 400 μL containing a final 0.5 ng/μL rhFAAH, 1 μM test compound, 1.25% ethanol or 1 μM PF-3845 (FAAH inhibitor), and 0.1% bovine serum albumin in Tris-EDTA buffer at pH 8.0). The positive control was LL-341001. The incubation was conducted at the room temperature. At 0, 5, 15, 30 and 60 minutes, an aliquot of 30 μL reaction mixtures was removed and mixed with 300 μL acetonitrile containing 5 ng/mL terfenadine and 10 ng/mL tolbutamide as internal standards to quench the reaction. The resulting mixture was centrifuged at 4000 rpm, 4° C. for 15 minutes, and 100 μL supernatant was ready for LC-MS/MS analysis to measure the formation of acid metabolite.
Acquity Ultra Performance LC system from Waters was used for sample analysis. The chromatography was performed on a reverse phase Kinetex 2.6 μm C18 column, 2.1×30 mm, 100 Å. The mobile phase A comprised of 0.1% formic acid in water and mobile phase B comprised of 0.1% formic acid in acetonitrile with a 2-min run time at the flow rate of 0.8 mL/min for the acid metabolite from positive control or a 1.5 min run time at the flow rate of 0.9 mL/min for the acid metabolite of test compounds. The mass spectrometer (API-5500 and API Q Trap 4000 Applied Biosystems/MDS SCIEX Instruments, Framingham, MA, USA) was operated under ESI positive or negative ion MRM mode.
The formation of acid metabolite was monitored and quantified using one calibration point of 1 μM. The observed rate constant (ke) for the acid metabolite formation was calculated by plotting the metabolite concentration versus time of incubation with the slope being ke and is shown in Table 4.

ke, observed rate constant for the acid metabolite formation | SMILES
A (ke is equal to or less than 1.0) | CNC(=O)CNc1cc(Cl)c(Cc2ccc(O)c(C(C)C)c2F)c(C)c1F [Compound 136, 2-((5-chloro-2-fluoro-4-(2-fluoro-4-hydroxy-3-isopropylbenzyl)-3-methylphenyl)amino)-N-methylacetamide]
A (ke is equal to or less than 1.0) | CNC(=O)CNc1cc(Cl)c(Cc2ccc(O)c(C(C)C)c2F)c(Cl)c1F [Compound 79, 2-((3,5-dichloro-2-fluoro-4-(2-fluoro-4-hydroxy-3-isopropylbenzyl)phenyl)amino)-N-methylacetamide]
NC | CNC(=O)CSCc1cc(Cl)c(Cc2ccc(O)c(C(C)C)c2)c(Cl)c1 [Compound 193, 2-((3,5-dichloro-4-(4-hydroxy-3-isopropylbenzyl)benzyl)thio)-N-methylacetamide]
C (ke is greater than 2.5) | CC(C)c1cc(Cc2c(Cl)cc(SCC(=O)Nc3ccnnc3)cc2Cl)ccc1O [Compound 173, 2-((3,5-dichloro-4-(4-hydroxy-3-isopropylbenzyl)phenyl)thio)-N-(pyridazin-4-yl)acetamide]
NC | CC(C)c1c(O)ccc(Cc2c(Cl)cc(CC(=O)N(C)C)cc2Cl)c1F [Compound 34, 2-(3,5-dichloro-4-(2-fluoro-4-hydroxy-3-isopropylbenzyl)phenyl)-N,N-dimethylacetamide]
A (ke is equal to or less than 1.0) | CNC(=O)CNc1cc(Cl)c(Cc2ccc(O)c(C(C)C)c2F)c(Cl)c1 [Compound 47, 2-((3,5-dichloro-4-(2-fluoro-4-hydroxy-3-isopropylbenzyl)phenyl)amino)-N-methylacetamide]
NC | CNC(=O)CSc1cc(Cl)c(Cc2ccc(O)c(C(C)C)c2)c(C)c1F [Compound 220, 2-((5-chloro-2-fluoro-4-(4-hydroxy-3-isopropylbenzyl)-3-methylphenyl)thio)-N-methylacetamide]
C (ke is greater than 2.5) | CC(C)c1cc(Cc2c(Cl)cc(SCC(N)=O)cc2Cl)ccc1O [Compound 179, 2-((3,5-dichloro-4-(4-hydroxy-3-isopropylbenzyl)phenyl)thio)acetamide]
A (ke is equal to or less than 1.0) | CNC(=O)/C(C)=C/c1cc(Cl)c(Cc2ccc(O)c(C(C)C)c2)c(C)c1F [Compound 237, (E)-3-(5-chloro-2-fluoro-4-(4-hydroxy-3-isopropylbenzyl)-3-methylphenyl)-N,2-dimethylacrylamide]

Continued, molecule first:

SMILES | ke, observed rate constant for the acid metabolite formation
CNC(=O)/C(C)=C/c1cc(C)c(Cc2ccc(O)c(C(C)C)c2F)c(Cl)c1 [Compound 238, (E)-3-(3-chloro-4-(2-fluoro-4-hydroxy-3-isopropylbenzyl)-5-methylphenyl)-N,2-dimethylacrylamide] | B (ke is greater than 1.0 and less than or equal to 2.5)
CNC(=O)Cc1cc(Cl)c(Cc2ccc(O)c(C(C)C)c2)c(Cl)c1 [Compound 7, 2-(3,5-dichloro-4-(4-hydroxy-3-isopropylbenzyl)phenyl)-N-methylacetamide] | NC
CC(C)c1cc(Cc2c(Cl)cc(SCC(=O)N3CCCC3)cc2Cl)ccc1O [Compound 182, 2-((3,5-dichloro-4-(4-hydroxy-3-isopropylbenzyl)phenyl)thio)-1-(pyrrolidin-1-yl)ethan-1-one] | A (ke is equal to or less than 1.0)
CCNC(=O)CSc1cc(Cl)c(Cc2ccc(O)c(C(C)C)c2F)c(Cl)c1 [Compound 187, 2-((3,5-dichloro-4-(2-fluoro-4-hydroxy-3-isopropylbenzyl)phenyl)thio)-N-ethylacetamide] | A (ke is equal to or less than 1.0)
CNC(=O)CSc1cc(Cl)c(Cc2ccc(O)c(C(C)C)c2F)c(Cl)c1 [Compound 188, 2-((3,5-dichloro-4-(2-fluoro-4-hydroxy-3-isopropylbenzyl)phenyl)thio)-N-methylacetamide] | B (ke is greater than 1.0 and less than or equal to 2.5)
CNC(=O)Cc1cc(Cl)c(Cc2ccc(O)c(C(C)C)c2F)c(Cl)c1 [Compound 33, 2-(3,5-dichloro-4-(2-fluoro-4-hydroxy-3-isopropylbenzyl)phenyl)-N-methylacetamide] | NC
CC(C)c1cc(Cc2c(Cl)cc(SCC(=O)NCc3ccccc3)cc2Cl)ccc1O [Compound 184, N-benzyl-2-((3,5-dichloro-4-(4-hydroxy-3-isopropylbenzyl)phenyl)thio)acetamide] | A (ke is equal to or less than 1.0)
CNC(=O)CNc1cc(Cl)c(Cc2ccc(O)c(C(C)C)c2)c(C)c1F [Compound 216, 2-((5-chloro-2-fluoro-4-(4-hydroxy-3-isopropylbenzyl)-3-methylphenyl)amino)-N-methylacetamide] | A (ke is equal to or less than 1.0)
CNC(=O)CSCc1cc(C)c(Cc2ccc(O)c(C(C)C)c2)c(Cl)c1 [Compound 241, 2-((3-chloro-4-(4-hydroxy-3-isopropylbenzyl)-5-methylbenzyl)thio)-N-methylacetamide] | B (ke is greater than 1.0 and less than or equal to 2.5)
CC(C)c1c(O)ccc(Cc2c(Cl)cc(NCC(=O)Nc3cccnn3)c(F)c2Cl)c1F [Compound 157, 2-((3,5-dichloro-2-fluoro-4-(2-fluoro-4-hydroxy-3-isopropylbenzyl)phenyl)amino)-N-(pyridazin-3-yl)acetamide] | B (ke is greater than 1.0 and less than or equal to 2.5)
CNC(=O)CCc1cc(Cl)c(Cc2ccc(O)c(C(C)C)c2)c(Cl)c1F [Compound 66, 3-(3,5-dichloro-2-fluoro-4-(4-hydroxy-3-isopropylbenzyl)phenyl)-N-methylpropanamide] | A (ke is equal to or less than 1.0)
CNC(=O)CSCc1cc(Cl)c(Cc2ccc(O)c(C(C)C)c2)c(C)c1F [Compound 219, 2-((5-chloro-2-fluoro-4-(4-hydroxy-3-isopropylbenzyl)-3-methylbenzyl)thio)-N-methylacetamide] | A (ke is equal to or less than 1.0)
CC(C)c1cc(Cc2c(Cl)cc(SCC(=O)Nc3cnccn3)cc2Cl)ccc1O [Compound 171, 2-((3,5-dichloro-4-(4-hydroxy-3-isopropylbenzyl)phenyl)thio)-N-(pyrazin-2-yl)acetamide] | B (ke is greater than 1.0 and less than or equal to 2.5)
CC(C)c1c(O)ccc(Cc2c(Cl)cc(NCC(=O)Nc3cccnc3)c(F)c2Cl)c1F [Compound 160, 2-((3,5-dichloro-2-fluoro-4-(2-fluoro-4-hydroxy-3-isopropylbenzyl)phenyl)amino)-N-(pyridin-3-yl)acetamide] | B (ke is greater than 1.0 and less than or equal to 2.5)
CC(C)c1c(O)ccc(Cc2c(Cl)cc(NCC(=O)Nc3ccncc3)c(F)c2Cl)c1F [Compound 161, 2-((3,5-dichloro-2-fluoro-4-(2-fluoro-4-hydroxy-3-isopropylbenzyl)phenyl)amino)-N-(pyridin-4-yl)acetamide] | B (ke is greater than 1.0 and less than or equal to 2.5)
CC(C)c1cc(Cc2c(Cl)cc(SCC(=O)Nc3cccnc3)cc2Cl)ccc1O [Compound 170, 2-((3,5-dichloro-4-(4-hydroxy-3-isopropylbenzyl)phenyl)thio)-N-(pyridin-3-yl)acetamide] | C (ke is greater than 2.5)
